# Measurements from patent publication US9168286B2, “Methods and compositions for use in treatment of patients with autoantibody positive disease” (Human Genome Sciences, Inc., priority 2005, dated 2015).
# Experiments:
# subjects with SLE [1] = assay: Phase 2 clinical trial of belimumab in SLE with extension and continuation trial: biologic markers (B cells, autoantibodies, Ig isotypes, C3/C4); assay type: in vivo, human; parameters: median percent change in CD20+ B cells (reduction) / median percent change in plasmacytoid B cells (CD20+/CD138+) (reduction) / median percent change in activated B cells (CD20+/CD69+) (reduction) / percent of subjects with significant anti-dsDNA reduction / IgE reduction: concentration or dose not given beside the values; conditions: for IgE reduction: subjects with elevated IgE (>114 KU/L) at baseline
# Protocol: Of the patients who completed 52 weeks of treatment in the randomized, double-blind, placebo-controlled Phase 2 trial (see example 1), 96% (351/364) elected to enter the 24-week extension phase of the trial, and 92% (321/351) of those who entered completed it.
# Serum autoantibodies, Ig isotypes and complement (C3, C4) were measured at 1-3 month intervals. In addition, the population with baseline serologic activity (ANA ≧1:80 or anti-dsDNA Ab ≧30IU; 72% of the original cohort herein called seropositive patients or seropositive subjects) was evaluated for SS, physician global assessment (PGA 0-3 units), BILAG, […] Functional Index (SFI) and autoantibody status at 1-3 month intervals.
# subjects with RA [2] = assay: Phase 2 clinical trial of belimumab in rheumatoid arthritis: ACR20 response; assay type: in vivo, human
# Source text: (§1) ACR20 response increased to approximately 40% at Week 48.
# subjects with RA [3] = assay: Phase 2 clinical trial of belimumab in rheumatoid arthritis: biomarkers; assay type: in vivo, human
# Source text: as §1
# subjects with RA [4] = assay: Phase 2 clinical trial of belimumab in rheumatoid arthritis: safety; assay type: in vivo, human
# Source text: as §1
# [5] = Phase 2 clinical trial of belimumab in rheumatoid arthritis: serum concentrations; conditions: human, in vivo
# Source text: as §1
# subjects with SLE [6] = conditions: human, in vivo
# Protocol: (§2) 449 subjects with SLE by ACR criteria (Tan et al., Arthritis Rheum. 25:1271-7, (1982); and Hochberg et al., Arthritis Rheum. 40:1725, (1997)), with a history of measurable autoantibodies and SELENA SLEDAI score ≧4 at screening were dosed.
# (§3) Subjects who completed the 52-week treatment period were given the option to continue the study for a 24-week extension period. […] B-cells were analyzed every 1-2 months by 4-color FACS (CD19, CD20, CD27, CD69, CD38, CD138 and CD45). Serum autoantibody, including anti-dsDNA Ab, Ig isotypes, total protein, and albumin levels were obtained at the same visits. The likelihood ratio chi-squared, Wilcoxon test or t-test was used to analyze the changes in the biological markers.
# subjects with SLE [7] = assay: Phase 2 clinical trial of belimumab in SLE: safety
# Protocol: as §2, §3
# [8] = each measurement during weeks 8-52, p<0.01
# [9] = week 52, all treatment groups combined, p<0.002
# [10] = week 76, all treatment groups combined
# [11] = continued treatment in the extension period
substance,measurement,setting,value
belimumab: an antibody that neutralizes Neutrokine-alpha protein,subjects with elevated Ig isotype levels at baseline returned to normal Ig isotype levels,"subjects with SLE [1]; 52/128, p=0.0014, control 16% (7/45)",41%
same,decrease of anti-dsDNA levels,"subjects with SLE [1]; anti-dsDNA+ at baseline, weeks 52-128, placebo week 52=9%",29-44%
same,"serum IgG, IgA, IgE and IgM levels, median percent change from baseline","subjects with SLE [1]; as early as week 8, p<0.0001 vs placebo",Significant belimumab-induced reductions
same,time at which maximal median reductions of each Ig isotype were reached,subjects with SLE [1]; belimumab-treated subjects,8-24 weeks
same,percent of subjects with significant anti-dsDNA reduction,"subjects with SLE [1]; clinical responders, week 52",35%
same,percent of subjects with significant anti-dsDNA reduction,"subjects with SLE [1]; clinical responders, week 128",56%
same,"CD19+ B cell counts, median percent change from baseline",subjects with SLE [1]; [8],Significant reductions
same,"activated B cell (CD20+/CD69+) counts, median percent change from baseline",subjects with SLE [1]; [8],Significant reductions
same,"naïve B cell (CD20+/CD27−) counts, median percent change from baseline",subjects with SLE [1]; [8],Significant reductions
same,"plasmacytoid B cell (CD20+/CD138+) counts, median percent change from baseline","subjects with SLE [1]; each measurement during weeks 16-52, p<0.01",Significant reductions
same,increase of C3,"subjects with SLE [1]; low baseline C3 (n=135), week 52, placebo −1%",6%
same,increase of C3,"subjects with SLE [1]; low baseline C3, week 76",10%
same,increase of C3,"subjects with SLE [1]; low baseline C3, week 96",15%
same,increase of C3,"subjects with SLE [1]; low baseline C3, week 128",18%
same,increase of C4,"subjects with SLE [1]; low baseline C4 (n=180), week 52, p=0.0126, placebo 14%",33%
same,increase of C4,"subjects with SLE [1]; low baseline C4, week 76",46%
same,increase of C4,"subjects with SLE [1]; low baseline C4, week 96",57%
same,increase of C4,"subjects with SLE [1]; low baseline C4, week 128",67%
same,Anti-Sm reverted from positive at baseline to negative,"subjects with SLE [1]; n=85, weeks 52-128, placebo week 52=5%",26-36%
same,subjects with hypergammaglobulinemia (>1618 mg/dL) at baseline normalized,"subjects with SLE [1]; n=125, week 52, placebo week 52=17%",45%
same,subjects with hypergammaglobulinemia (>1618 mg/dL) at baseline normalized,"subjects with SLE [1]; n=125, week 128",57%
same,RNP reverted from positive at baseline to negative,"subjects with SLE [1]; n=205, weeks 52-128, placebo week 52=2%",9-27%
same,percent of subjects with significant anti-dsDNA reduction,"subjects with SLE [1]; non-responders, week 52",19%
same,percent of subjects with significant anti-dsDNA reduction,"subjects with SLE [1]; non-responders, week 128",32%
same,"C4 complement levels, median percent change from baseline","subjects with SLE [1]; patients with low C4 at baseline, each measurement during weeks 4-52, p≦0.01",significant increase
same,"anti-dsDNA titer, median percent change from baseline","subjects with SLE [1]; subjects with anti-dsDNA ≧30 IU/ml at entry, as early as week 4, through week 52, vs placebo",significant reduction
same,IgE reduction,subjects with SLE [1]; week 52,44%
same,IgE reduction,subjects with SLE [1]; week 128,57%
same,median percent IgG reduction,"subjects with SLE [1]; subjects with elevated IgG at baseline, weeks 52-128",14-18%
same,median percent IgG reduction,"subjects with SLE [1]; subjects with normal IgG at baseline, weeks 52-128",7-8%
same,"cell counts of CD19+, naïve, activated and plasmacytoid B cells, median percent change from baseline","subjects with SLE [1]; week 24, all treated combined vs placebo, p<0.0001",significant reduction
same,CD19+ B cells and naïve B cells (CD20+/CD27−),subjects with SLE [1]; week 52,significantly reduced
same,memory cell populations,subjects with SLE [1]; week 52,preserved
same,median percent change in CD20+ B cells (reduction),subjects with SLE [1]; [9],54%
same,median percent change in plasmacytoid B cells (CD20+/CD138+) (reduction),subjects with SLE [1]; [9],62%
same,reduction of anti-dsDNA Ab,"subjects with SLE [1]; week 52, baseline positive, p<0.002, placebo 9%",30%
same,median percent change in activated B cells (CD20+/CD69+) (reduction),"subjects with SLE [1]; week 52, p<0.002",70%
same,median reduction of serum IgE,"subjects with SLE [1]; week 52, placebo 0%",34%
same,median reduction of serum IgA,"subjects with SLE [1]; week 52, placebo 3%",14%
same,median reduction of serum IgM,"subjects with SLE [1]; week 52, placebo 5%",29%
same,subjects with significant anti-dsDNA reduction (≧50% reduction or become negative),"subjects with SLE [1]; week 52, placebo 17%",30%
same,median reduction of serum IgG,"subjects with SLE [1]; week 52, placebo up 3%",10%
same,increase of plasma cells (CD20−/CD138+) over baseline,"subjects with SLE [1]; week 52, placebo/standard of care 30.6%, p=0.02",72.5%
same,additional anti-dsDNA+ subjects converted to negative,subjects with SLE [1]; week 76,3 subjects
same,median reduction of serum IgA,subjects with SLE [1]; week 76,15%
same,median reduction of serum IgE,subjects with SLE [1]; week 76,35%
same,median reduction of serum IgG,subjects with SLE [1]; week 76,12%
same,median reduction of serum IgM,subjects with SLE [1]; week 76,34%
same,reduction of anti-dsDNA Ab,subjects with SLE [1]; week 76,28%
same,median percent change in CD20+ B cells (reduction),subjects with SLE [1]; [10],61%
same,median percent change in activated B cells (CD20+/CD69+) (reduction),subjects with SLE [1]; [10],84%
same,median percent change in plasmacytoid B cells (CD20+/CD138+) (reduction),subjects with SLE [1]; [10],60%
same,median reduction of serum IgA,subjects with SLE [1]; week 104,14%
same,median reduction of serum IgE,subjects with SLE [1]; week 104,37%
same,median reduction of serum IgG,subjects with SLE [1]; week 104,10%
same,median reduction of serum IgM,subjects with SLE [1]; week 104,35%
same,median reduction of serum IgA,subjects with SLE [1]; week 128,14%
same,median reduction of serum IgE,subjects with SLE [1]; week 128,41%
same,median reduction of serum IgG,subjects with SLE [1]; week 128,9%
same,median reduction of serum IgM,subjects with SLE [1]; week 128,40%
same,subjects with significant anti-dsDNA reduction (≧50% reduction or become negative),subjects with SLE [1]; week 128,47%
same,ACR20 response,"subjects with RA [2]; 1 mg/kg treatment group vs placebo, 24 weeks, p=0.0097",statistically superior
same,"dose-response relationship for efficacy, safety, biomarker effects","subjects with RA [2]; 1, 4, 10 mg/kg",not apparent
same,ACR20 response,subjects with RA [2]; Week 48 (extension period),approximately 40%
same,ACR20 response,"subjects with RA [2]; all active treatment groups combined vs placebo, 24 weeks, p=0.0213",statistically superior
same,"symptoms associated with rheumatoid arthritis, by subgroup","subjects with RA [2]; patients with DAS28 >5.1, no previous anti-TNF therapy, and/or rheumatoid factor, IV days 0, 14, 28 then every four weeks until week 24",more likely to ameliorate symptoms associated with rheumatoid arthritis
same,ACR20 responses in subgroups,subjects with RA [2]; subjects with autoantibody positive disease (RF or anti-CCP) or positive for CRP at baseline,improved ACR20 responses
same,Effects on biomarkers,subjects with RA [3]; [11],increased or were sustained
same,CD20+ B-cells,"subjects with RA [3]; human, in vivo",statistically significant reductions
same,RF (rheumatoid factor),"subjects with RA [3]; human, in vivo",statistically significant reductions
same,activated B-cells,"subjects with RA [3]; human, in vivo",statistically significant reductions
same,memory cells,"subjects with RA [3]; human, in vivo",increased within first month of treatment and slowly declined with continued treatment
same,naïve B-cells,"subjects with RA [3]; human, in vivo",statistically significant reductions
same,tolerability,"subjects with RA [4]; 1, 4, 10 mg/kg, 24 weeks",well tolerated at all doses
same,tolerability,subjects with RA [4]; [11],well tolerated
same,Serum concentrations,[5],within the range expected based on the Phase 1 data
same,"effect of concomitant medications (methotrexate, leflunomide or hydroxychloroquine) on belimumab exposures",[5],no significant effect
same,"safety, including adverse events (AE), AE severity, infections or lab toxicity",subjects with SLE [6],No clinically significant differences
same,"Immunogenicity to belimumab, number of subjects",subjects with SLE [7]; 1 mg/kg,1 subject
same,Infusion reactions,"subjects with SLE [7]; human, in vivo","rare, with only 1 severe event reported"
same,tolerability,"subjects with SLE [7]; human, in vivo",well tolerated
same,subjects with pleurisy,"subjects with SLE [7]; placebo 8%, p<0.05",3.3%
